Measured values published in ChEMBL document CHEMBL1909546, “Antiviral activity of novel 2'-fluoro-6'-methylene-carbocyclic adenosine against wild-type and drug-resistant hepatitis B virus mutants” (Bioorg Med Chem Lett, 2011).

What was measured:
Hepatitis B virus [1] = assay: Antiviral activity against lamivudine/entecavir-resistant Hepatitis B virus harboring reverse transcriptase L180M/M204V/S202G infected in human HepG2(2.2.15) cells assessed as inhibition of virus replication treated daily for 9 days by quantitative blot hybridization method; assay type: functional, organism-based; conditions: HepG2 2.2.15, 216 h
Hepatitis B virus [2] = assay: Antiviral activity against wild type Hepatitis B virus infected in human HepG2(2.2.15) cells assessed as inhibition of virus replication treated daily for 9 days by quantitative blot hybridization method; assay type: functional, organism-based; conditions: HepG2 2.2.15, 216 h
Hepatitis B virus [3] = assay: Antiviral activity against wild type Hepatitis B virus infected in human HepG2(2.2.15) cells assessed as reduction of infectious virus titer treated daily for 9 days by quantitative Southern blot hybridization assay; assay type: functional; conditions: HepG2 2.2.15, 216 h
[4] = Cytotoxicity against human HepG2(2.2.15) cells after 24 hrs by neutral red dye uptake assay; assay type: cell-based
Hepatitis B virus [5] = assay: Antiviral activity against lamivudine-resistant Hepatitis B virus harboring reverse transcriptase L180M mutant infected in human HepG2(2.2.15) cells assessed as reduction of infectious virus titer treated daily for 9 days by quantitative Southern blot hybridization assay; assay type: functional; conditions: HepG2 2.2.15, 216 h
Hepatitis B virus [6] = assay: Fold resistance, ratio of EC90 for lamivudine-resistant Hepatitis B virus harboring reverse transcriptase L180M mutant to EC90 for wild type Hepatitis B virus; assay type: functional
Hepatitis B virus [7] = assay: Antiviral activity against lamivudine-resistant Hepatitis B virus harboring reverse transcriptase L180M/M204V double mutant infected in human HepG2(2.2.15) cells assessed as inhibition of virus replication treated daily for 9 days by quantitative blot hybridization method; assay type: functional, organism-based; conditions: HepG2 2.2.15, 216 h
Hepatitis B virus [8] = assay: Antiviral activity against lamivudine-resistant Hepatitis B virus harboring reverse transcriptase L180M/M204V double mutant infected in human HepG2(2.2.15) cells assessed as reduction of infectious virus titer treated daily for 9 days by quantitative Southern blot hybridization assay; assay type: functional; conditions: HepG2 2.2.15, 216 h
Hepatitis B virus [9] = assay: Fold resistance, ratio of EC90 for lamivudine-resistant Hepatitis B virus harboring reverse transcriptase L180M/M204V double mutant to EC90 for wild type Hepatitis B virus; assay type: functional
Hepatitis B virus [10] = assay: Antiviral activity against adefovir-resistant Hepatitis B virus harboring reverse transcriptase N236T mutant infected in human HepG2(2.2.15) cells assessed as inhibition of virus replication treated daily for 9 days by quantitative blot hybridization method; assay type: functional, organism-based; conditions: HepG2 2.2.15, 216 h
Hepatitis B virus [11] = assay: Antiviral activity against adefovir-resistant Hepatitis B virus harboring reverse transcriptase N236T mutant infected in human HepG2(2.2.15) cells assessed as reduction of infectious virus titer treated daily for 9 days by quantitative Southern blot hybridization assay; assay type: functional; conditions: HepG2 2.2.15, 216 h
Hepatitis B virus [12] = assay: Fold resistance, ratio of EC90 for adefovir-resistant Hepatitis B virus harboring reverse transcriptase N236T mutant to EC90 for wild type Hepatitis B virus; assay type: functional
Hepatitis B virus [13] = assay: Ratio of adefovir EC90 to compound EC90 for wild type Hepatitis B virus; assay type: functional
Hepatitis B virus [14] = assay: Ratio of adefovir EC50 to compound EC50 for adefovir-resistant Hepatitis B virus harboring reverse transcriptase N236T mutant; assay type: functional
Hepatitis B virus [15] = assay: Ratio of adefovir EC90 to compound EC90 for adefovir-resistant Hepatitis B virus harboring reverse transcriptase N236T mutant; assay type: functional
Hepatitis B virus [16] = assay: Antiviral activity against lamivudine-resistant Hepatitis B virus harboring reverse transcriptase M204V mutant infected in human HepG2(2.2.15) cells assessed as inhibition of virus replication treated daily for 9 days by quantitative blot hybridization method; assay type: functional, organism-based; conditions: HepG2 2.2.15, 216 h
Hepatitis B virus [17] = assay: Antiviral activity against lamivudine-resistant Hepatitis B virus harboring reverse transcriptase M204V mutant infected in human HepG2(2.2.15) cells assessed as reduction of infectious virus titer treated daily for 9 days by quantitative Southern blot hybridization assay; assay type: functional; conditions: HepG2 2.2.15, 216 h
Hepatitis B virus [18] = assay: Fold resistance, ratio of EC90 for lamivudine-resistant Hepatitis B virus harboring reverse transcriptase M204V mutant to EC90 for wild type Hepatitis B virus; assay type: functional
Hepatitis B virus [19] = assay: Antiviral activity against lamivudine-resistant Hepatitis B virus harboring reverse transcriptase M204I mutant infected in human HepG2(2.2.15) cells assessed as inhibition of virus replication treated daily for 9 days by quantitative blot hybridization method; assay type: functional, organism-based; conditions: HepG2 2.2.15, 216 h
Hepatitis B virus [20] = assay: Antiviral activity against lamivudine-resistant Hepatitis B virus harboring reverse transcriptase M204I mutant infected in human HepG2(2.2.15) cells assessed as reduction of infectious virus titer treated daily for 9 days by quantitative Southern blot hybridization assay; assay type: functional; conditions: HepG2 2.2.15, 216 h
Hepatitis B virus [21] = assay: Fold resistance, ratio of EC90 for lamivudine-resistant Hepatitis B virus harboring reverse transcriptase M204I mutant to EC90 for wild type Hepatitis B virus; assay type: functional
Hepatitis B virus [22] = assay: Antiviral activity against lamivudine-resistant Hepatitis B virus harboring reverse transcriptase L180M mutant infected in human HepG2(2.2.15) cells assessed as inhibition of virus replication treated daily for 9 days by quantitative blot hybridization method; assay type: functional, organism-based; conditions: HepG2 2.2.15, 216 h
Hepatitis B virus [23] = assay: Ratio of Lamivudine EC90 to compound EC90 for Lamivudine-resistant Hepatitis B virus harboring reverse transcriptase L180M mutant; assay type: functional
[24] = Stability of the compound assessed as resistance to calf thymus adenosine deaminase; assay type: ADME; conditions: cattle

C=C1[C@H](CO)[C@@H](O)C[C@@H]1n1cnc2c(=O)[nH]c(N)nc21 [ENTECAVIR]
EC50 (Hepatitis B virus [1]): 1.2 µM | EC50 (Hepatitis B virus [2]): 0.008 µM | EC90 (Hepatitis B virus [3]): 0.033 µM | CC50 at 24 h [4]: 28 µM

C=C1[C@@H](n2cnc3c(N)ncnc32)[C@@H](F)[C@H](O)[C@H]1CO
EC90 (Hepatitis B virus [5]): 5.1 µM | Ratio (Hepatitis B virus [6]): 1.1 | EC50 (Hepatitis B virus [7]): 2.2 µM | EC90 (Hepatitis B virus [8]): 5.5 µM | Ratio (Hepatitis B virus [9]): 1.2 | EC50 (Hepatitis B virus [10]): 1.7 µM | EC90 (Hepatitis B virus [11]): 4.6 µM | Ratio (Hepatitis B virus [12]): 1 | EC50 (Hepatitis B virus [1]): 0.67 µM | Ratio (Hepatitis B virus [13]): 1.5 | Ratio EC50 (Hepatitis B virus [14]): 4.5 | Ratio (Hepatitis B virus [15]): 7.8 | EC50 (Hepatitis B virus [2]): 1.5 µM | EC90 (Hepatitis B virus [3]): 4.5 µM | CC50 at 24 h [4]: > 100 µM | EC50 (Hepatitis B virus [16]): 1.8 µM | EC90 (Hepatitis B virus [17]): 4.7 µM | Ratio (Hepatitis B virus [18]): 1 | EC50 (Hepatitis B virus [19]): 1 µM | EC90 (Hepatitis B virus [20]): 5 µM | Ratio (Hepatitis B virus [21]): 1.1 | EC50 (Hepatitis B virus [22]): 2.1 µM | Ratio (Hepatitis B virus [23]): 4.3 | Stability [24]: Stable

Nc1ccn([C@@H]2CS[C@H](CO)O2)c(=O)n1 [LAMIVUDINE]
EC90 (Hepatitis B virus [5]): 22 µM | Ratio (Hepatitis B virus [6]): 36.7 | EC50 (Hepatitis B virus [7]): > 100 µM | EC90 (Hepatitis B virus [8]): > 100 µM | Ratio (Hepatitis B virus [9]): >166 | EC90 (Hepatitis B virus [11]): 0.9 µM | Ratio (Hepatitis B virus [12]): 1.5 | EC50 (Hepatitis B virus [1]): > 500 µM | EC90 (Hepatitis B virus [3]): 0.6 µM | EC50 (Hepatitis B virus [16]): > 100 µM | EC90 (Hepatitis B virus [17]): > 100 µM | Ratio (Hepatitis B virus [18]): >166 | EC50 (Hepatitis B virus [19]): > 100 µM | EC90 (Hepatitis B virus [20]): > 100 µM | Ratio (Hepatitis B virus [21]): >166 | EC50 (Hepatitis B virus [22]): 1.5 µM

Nc1ncnc2c1ncn2CCOCP(=O)(O)O [ADEFOVIR]
EC90 (Hepatitis B virus [5]): 7.7 µM | Ratio (Hepatitis B virus [6]): 1.1 | EC50 (Hepatitis B virus [7]): 2.1 µM | EC90 (Hepatitis B virus [8]): 8.5 µM | Ratio (Hepatitis B virus [9]): 1.2 | EC50 (Hepatitis B virus [10]): 7.8 µM | EC90 (Hepatitis B virus [11]): 36 µM | Ratio (Hepatitis B virus [12]): 5.1 | EC50 (Hepatitis B virus [2]): 1.3 µM | EC90 (Hepatitis B virus [3]): 7.1 µM | EC50 (Hepatitis B virus [16]): 1.6 µM | EC90 (Hepatitis B virus [17]): 7 µM | Ratio (Hepatitis B virus [18]): 1 | EC50 (Hepatitis B virus [19]): 1.9 µM | EC90 (Hepatitis B virus [20]): 8 µM | Ratio (Hepatitis B virus [21]): 1.1 | EC50 (Hepatitis B virus [22]): 5.5 µM
